Measurements from BindingDB's records for doi:10.7270/Q2N87841 (Burnham Center For Chemical Genomics, 2008).

Target: T1, Dual specificity protein phosphatase 6 (Rattus norvegicus, UniProt Q64346)
T1 sequence (Q64346 whole entry): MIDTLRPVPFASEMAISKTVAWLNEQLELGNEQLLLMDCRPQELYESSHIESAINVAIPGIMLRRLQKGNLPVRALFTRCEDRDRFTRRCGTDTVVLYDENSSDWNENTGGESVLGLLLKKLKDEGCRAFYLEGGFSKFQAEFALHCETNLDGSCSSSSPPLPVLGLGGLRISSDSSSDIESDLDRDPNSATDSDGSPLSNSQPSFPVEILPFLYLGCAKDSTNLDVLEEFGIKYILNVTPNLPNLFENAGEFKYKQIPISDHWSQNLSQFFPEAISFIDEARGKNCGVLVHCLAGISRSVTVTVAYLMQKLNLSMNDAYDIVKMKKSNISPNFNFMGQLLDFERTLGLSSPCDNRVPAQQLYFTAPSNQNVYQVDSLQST
Assay: MKP-3 phosphatase inhibitors, SAR follow-up, biochemical (AID 1055)
Conditions: pH 7; 23 °C

Cc1ccc2c(c1)C1C=CCC1C(C(=O)O)N2 (stereo unspecified) [MLS-0067149.0001]
IC50: 7.9 µM
